Experimental data published in ChEMBL document CHEMBL1155388 (Bioorg Med Chem Lett, 2010).
Activity calls are given as the source filed them. No cut-off for these calls is given here.

Columns and labels:
Type in all cases: functional, cell-based
[1] = target: T1, Muscarinic acetylcholine receptor M1 (Homo sapiens) (UniProt P11229); assay: Potentiation of muscarinic M1 receptor expressed in CHO cells assessed as effect on acetylcholine-induced intracellular calcium mobilization after 1 hr by FLIPR assay relative to acetylcholine; set-up: concentration or dose not given beside the values
T1 sequence (whole entry): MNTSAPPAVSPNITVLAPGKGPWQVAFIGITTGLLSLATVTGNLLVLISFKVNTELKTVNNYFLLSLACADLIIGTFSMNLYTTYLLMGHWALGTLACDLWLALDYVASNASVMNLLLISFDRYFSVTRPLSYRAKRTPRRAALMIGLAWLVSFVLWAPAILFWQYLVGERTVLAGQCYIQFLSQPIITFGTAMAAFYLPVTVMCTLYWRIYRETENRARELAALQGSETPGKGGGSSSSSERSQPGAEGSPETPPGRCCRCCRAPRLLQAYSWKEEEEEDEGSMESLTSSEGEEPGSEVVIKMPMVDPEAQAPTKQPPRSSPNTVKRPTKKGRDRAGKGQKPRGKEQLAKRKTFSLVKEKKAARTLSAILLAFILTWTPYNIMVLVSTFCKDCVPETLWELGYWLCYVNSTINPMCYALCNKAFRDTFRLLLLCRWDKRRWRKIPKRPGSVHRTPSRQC

[2] = target: T1, Muscarinic acetylcholine receptor M1 (Homo sapiens); assay: Potentiation of muscarinic M1 receptor expressed in CHO cells assessed as effect on acetylcholine-induced intracellular calcium mobilization at 100 uM after 1 hr by FLIPR assay
[3] = target: T2, Muscarinic acetylcholine receptor M1 (Homo sapiens, UniProt P11229); assay: Potentiation of muscarinic M1 receptor expressed in CHO cells assessed as effect on acetylcholine-induced intracellular calcium mobilization after 1 hr by FLIPR assay
T2 sequence (P11229 whole entry): T1 sequence (whole entry)

[4] = target: T3, Muscarinic acetylcholine receptor M5 (Homo sapiens) (UniProt P08912); assay: Potentiation of muscarinic M5 receptor expressed in CHO cells assessed as effect on acetylcholine-induced intracellular calcium mobilization at 30 uM after 1 hr by FLIPR assay relative to acetylcholine
T3 sequence (whole entry): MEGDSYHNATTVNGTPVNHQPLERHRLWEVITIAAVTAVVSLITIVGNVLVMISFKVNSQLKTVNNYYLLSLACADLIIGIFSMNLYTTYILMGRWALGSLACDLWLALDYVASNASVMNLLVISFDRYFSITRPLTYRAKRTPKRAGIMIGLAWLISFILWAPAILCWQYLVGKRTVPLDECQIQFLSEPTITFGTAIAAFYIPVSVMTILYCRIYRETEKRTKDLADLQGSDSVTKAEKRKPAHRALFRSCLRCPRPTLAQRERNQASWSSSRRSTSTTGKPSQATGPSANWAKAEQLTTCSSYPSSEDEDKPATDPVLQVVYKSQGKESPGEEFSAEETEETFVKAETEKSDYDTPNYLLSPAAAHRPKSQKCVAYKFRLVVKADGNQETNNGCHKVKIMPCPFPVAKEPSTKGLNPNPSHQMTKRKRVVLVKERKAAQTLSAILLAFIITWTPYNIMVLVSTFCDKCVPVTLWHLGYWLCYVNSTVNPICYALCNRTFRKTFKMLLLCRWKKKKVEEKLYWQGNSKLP

[5] = target: T3, Muscarinic acetylcholine receptor M5 (Homo sapiens); assay: Potentiation of muscarinic M5 receptor expressed in CHO cells assessed as effect on acetylcholine-induced intracellular calcium mobilization at 10 uM after 1 hr by FLIPR assay relative to acetylcholine
[6] = target: T1, Muscarinic acetylcholine receptor M1 (Homo sapiens); assay: Potentiation of muscarinic M1 receptor expressed in CHO cells assessed as effect on acetylcholine-induced intracellular calcium mobilization at 30 uM after 1 hr by FLIPR assay
[7] = target: T1, Muscarinic acetylcholine receptor M1 (Homo sapiens); assay: Potentiation of muscarinic M1 receptor expressed in CHO cells assessed as effect on acetylcholine-induced intracellular calcium mobilization at 10 uM after 1 hr by FLIPR assay
[8] = target: Muscarinic acetylcholine receptor M3 (Homo sapiens) (UniProt P20309); assay: Potentiation of muscarinic M3 receptor expressed in CHO cells assessed as effect on acetylcholine-induced intracellular calcium mobilization at 30 uM after 1 hr by FLIPR assay relative to acetylcholine
Muscarinic acetylcholine receptor M3 (Homo sapiens), sequence (P20309 whole entry, looked up): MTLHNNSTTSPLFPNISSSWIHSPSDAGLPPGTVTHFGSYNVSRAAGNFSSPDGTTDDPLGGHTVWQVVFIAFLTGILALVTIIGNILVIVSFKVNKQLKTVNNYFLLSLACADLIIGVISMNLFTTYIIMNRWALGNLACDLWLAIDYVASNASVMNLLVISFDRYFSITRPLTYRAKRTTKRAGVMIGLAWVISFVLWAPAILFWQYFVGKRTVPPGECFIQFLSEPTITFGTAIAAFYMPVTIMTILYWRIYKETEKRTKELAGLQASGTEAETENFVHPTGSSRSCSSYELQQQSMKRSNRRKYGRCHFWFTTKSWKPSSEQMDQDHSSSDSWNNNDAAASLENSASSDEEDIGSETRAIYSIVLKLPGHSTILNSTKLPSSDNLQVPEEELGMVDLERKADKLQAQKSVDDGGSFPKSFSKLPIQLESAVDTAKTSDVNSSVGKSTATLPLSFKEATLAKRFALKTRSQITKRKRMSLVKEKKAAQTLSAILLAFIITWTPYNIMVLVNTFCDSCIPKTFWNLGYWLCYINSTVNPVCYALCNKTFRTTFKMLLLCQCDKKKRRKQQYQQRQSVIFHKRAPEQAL

[9] = target: Muscarinic acetylcholine receptor M3 (Homo sapiens) (UniProt P20309); assay: Potentiation of muscarinic M3 receptor expressed in CHO cells assessed as effect on acetylcholine-induced intracellular calcium mobilization up to 30 uM after 1 hr by FLIPR assay
[10] = target: T4, Muscarinic acetylcholine receptor M2 (Homo sapiens) (UniProt P08172); assay: Potentiation of muscarinic M2 receptor expressed in CHO cells co-transfected with Gqi5 assessed as effect on acetylcholine-induced intracellular calcium mobilization up to 30 uM after 1 hr by FLIPR assay
T4 sequence (whole entry): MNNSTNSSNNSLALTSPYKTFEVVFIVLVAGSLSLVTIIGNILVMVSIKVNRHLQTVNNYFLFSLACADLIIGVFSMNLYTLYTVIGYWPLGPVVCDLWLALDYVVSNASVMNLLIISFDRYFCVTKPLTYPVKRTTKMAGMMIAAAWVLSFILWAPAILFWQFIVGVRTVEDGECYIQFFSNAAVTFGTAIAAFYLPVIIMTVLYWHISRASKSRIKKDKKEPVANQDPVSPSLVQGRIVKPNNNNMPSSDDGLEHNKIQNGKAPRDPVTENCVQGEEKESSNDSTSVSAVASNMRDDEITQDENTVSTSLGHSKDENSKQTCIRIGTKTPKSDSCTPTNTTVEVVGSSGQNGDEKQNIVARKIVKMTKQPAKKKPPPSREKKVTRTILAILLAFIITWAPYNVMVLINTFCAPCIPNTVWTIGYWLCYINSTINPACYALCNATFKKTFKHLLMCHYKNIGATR

[11] = target: T3, Muscarinic acetylcholine receptor M5 (Homo sapiens); assay: Potentiation of muscarinic M5 receptor expressed in CHO cells assessed as effect on acetylcholine-induced intracellular calcium mobilization up to 30 uM after 1 hr by FLIPR assay
[12] = target: T5, Muscarinic acetylcholine receptor M4 (Homo sapiens) (UniProt P08173); assay: Potentiation of muscarinic M4 receptor expressed in CHO cells co-transfected with Gqi5 assessed as effect on acetylcholine-induced intracellular calcium mobilization up to 30 uM after 1 hr by FLIPR assay
T5 sequence (whole entry): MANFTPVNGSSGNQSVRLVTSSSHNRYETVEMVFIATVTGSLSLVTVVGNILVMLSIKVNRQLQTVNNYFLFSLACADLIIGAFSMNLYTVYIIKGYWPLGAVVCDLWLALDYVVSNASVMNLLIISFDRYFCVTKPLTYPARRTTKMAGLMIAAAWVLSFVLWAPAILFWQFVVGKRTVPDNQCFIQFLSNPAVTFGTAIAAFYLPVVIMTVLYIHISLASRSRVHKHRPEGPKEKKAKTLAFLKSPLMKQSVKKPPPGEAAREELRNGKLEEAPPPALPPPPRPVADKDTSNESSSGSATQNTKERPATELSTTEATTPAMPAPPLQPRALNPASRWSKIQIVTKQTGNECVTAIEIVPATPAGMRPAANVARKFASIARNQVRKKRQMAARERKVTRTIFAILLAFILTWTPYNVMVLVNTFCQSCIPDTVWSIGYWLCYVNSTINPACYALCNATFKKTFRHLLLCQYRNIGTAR

Q: Which results are given for `COc1ccc(Cn2cc(C(=O)O)c(=O)c3ccccc32)cc1`?
A: Activity [1]: 100%; fold change (FC) [2]: 100

Q: `Cn1cc(-c2ccc(CN3C(=O)C(=O)c4c(F)ccc(F)c43)c(F)c2)cn1` was tested. Which Activity [1] did it give?
A: 50%

Q: And the EC50 [3]?
A: 1200 nM

Q: How did the Activity [1] turn out when `Cn1cc(-c2ccc(CN3C(=O)C(=O)c4ccccc43)cc2)cn1` was run?
A: 80%

Q: And the Activity [4]?
A: 35%

Q: What about the fold change (FC) [4] of the same compound?
A: 14

Q: What about the fold change (FC) [5] of the same compound?
A: 5

Q: What about the fold change (FC) [6] of the same compound?
A: 14

Q: What about the fold change (FC) [7] of the same compound?
A: 5

Q: What about the EC50 [3] of the same compound?
A: 2300 nM

Q: And the Activity [8]?
A: 25%

Q: Which results are given for `Cn1cc(-c2ccc(CN3C(=O)C(=O)c4ccccc43)c(F)c2)cn1`?
A: Activity [1]: 65%; Activity [9]: inactive; Activity [10]: inactive; fold change (FC) [6]: 3; Activity [11]: inactive; fold change (FC) [11]: 3; Activity [12]: inactive; EC50 [3]: 830 nM

Q: `Cn1cc(-c2cc(F)c(CN3C(=O)C(=O)c4cccc(F)c43)c(F)c2)cn1` was tested. Which Activity [1] did it give?
A: 40%

Q: And the EC50 [3]?
A: 1100 nM

Q: For `Cn1cc(-c2ccc(CN3C(=O)C(=O)c4cccc(F)c43)c(F)c2)cn1`, which Activity [1] is on record?
A: 55%

Q: And the EC50 [3]?
A: 2300 nM

Q: Which results are given for `Cn1cc(-c2cc(F)c(CN3C(=O)C(=O)c4ccccc43)c(F)c2)cn1`?
A: Activity [1]: 60%; fold change (FC) [6]: 2; fold change (FC) [11]: 2; EC50 [3]: 860 nM
